{
  "source": "patent US10532066B2",
  "about": "“Surfactant lipids, compositions thereof, and uses thereof” (National Jewish Health, priority 2007, dated 2020)",
  "key": {"[1]": {"tested_on": "MAPK, IkBα and MKP-1 in differentiated U937 cells", "test": "Western blot of LPS induced MAPK and IkBα phosphorylation and MKP-1 expression", "assay_type": "cell-based, human", "settings": "LPS 10 ng/ml, liposomes 200 μg/ml", "experimental": "FIG. 4. POPG inhibits LPS induced MAPK and IkBα phosphorylation and MKP-1 expression. POPG liposomes (200 μg/ml) were added to monolayer cultures of differentiated U937 cells that received either no treatment or 10 ng/ml LPS. After incubating for the indicated time, cells were lysed using lysis buffer containing detergent, protease inhibitors and phosphatase inhibitors. Aliquots with 15 μg of protein from lysates were separated by SDS-PAGE and transferred onto nitrocellulose membranes. The amount of phosphorylation was detected using phospho-specific antibodies to p38MAPK, p42/p44 ERK, p46-p54 INK and phosphorylated IkBα. To determine equal loading of proteins between samples, the membranes were probed with rabbit polyclonal p46 INK, p42/p44 ERK, p38MAPK and IkBα antibodies. The expression of MKP-1 was detected with a polyclonal MKP-1 antibody.\nFIG. 5. Quantification of POPG inhibition of LPS induced signaling. Western blot analysis as described in FIG. 4 was performed three or four times on separate samples and the intensity of phospho-p38, phospho-IkBα, phosphoERK, phospho JNK, phospho IkBα, total IkBα and MKP-1 was calculated using NIH Image J1.34 software.\nFIG. 6. Molecular specificity in POPG action. Liposomes composed of POPC, DPPG or POPG were added to monolayer cultures of differentiated U937 cells that received either no treatment or 10 ng/ml LPS, as indicated. After 30 or 60 min cells were lysed and 15 μg of cellular protein from cultures was separated by SDS-PAGE and transferred onto nitrocellulose membranes. Phosphorylated and nonphosphorylated proteins were detected as described in FIG. 4.\nFIG. 7. Comparative quantification of lipid dependent antagonism of LPS signaling. Western blot analysis was performed as described in FIG. 6 in three independent experiments. The intensity of the phosphorylated (p38, ERK, JNK and IkBα) and nonphosphorylated (total IkBα and MKP-1) proteins of interest was measured using NIH Image 0.1.34 software. Significance—*p<0.05, ** p<0.01.\nMonolayers of unstimulated or stimulated macrophages were lysed on ice with 250 μl of ice-cold lysis buffer [50 mM Tris.HCl, pH 8.0, containing 137 mM NaCl, 10% (vol/vol) glycerol, 1% (vol/vol) Nonidet P-40, 1 mM NaF, 10 μg/ml leupeptin, 10 μg/ml aprotinin, 2 mM Na3VO4, and 1 mM phenylmethylsulfonyl fluoride (29). Insoluble nuclear material was pelleted by centrifugation at 14,000×g for 10 min at 4° C. and the supernatants were collected. 15 μg of protein from lysates was separated by SDS-PAGE and transferred onto nitrocellulose membranes (30). The blots were then washed in Tris-Tween-buffered saline [TTBS, 20 mM Tris-HCl buffer, pH 7.6, containing 137 mM NaCl and 0.05% (vol/vol) Tween 20], blocked with 5% (wt/vol) nonfat dry milk for 1 hour, and probed according to the method described by Towbin et. al. (30) with phospho-specific antibodies to p46-p54 JNK, p42/p44 ERK, and p38MAPK, or IkBα or with a polyclonal MKP-1 or IkBα antibodies in 5% (wt/vol) BSA dissolved in TTBS. With the use of horseradish peroxidase-conjugated secondary anti-rabbit or anti-mouse antibody, bound antibodies were detected by enhanced chemiluminescence (ECL plus, Amersham Biosciences, Piscataway, N.J.). To determine loading of proteins between samples, the membranes were probed with rabbit polyclonal p46 JNK, p42/p44 ERK, and p38MAPK antibodies."}, "[2]": {"tested_on": "Respiratory Syncytial Virus (RSV)", "test": "RSV-induced cytokine production in BEAS2B cells", "assay_type": "cell-based", "settings": "RSV multiplicity 3, 48 h, lipid 200 ug/ml"}, "[3]": {"tested_on": "Respiratory Syncytial Virus (RSV)", "test": "RSV-induced cytokine production in NHBE cells", "assay_type": "cell-based", "settings": "RSV multiplicity 3, 48 h, lipid 200 ug/ml"}, "[4]": {"tested_on": "Respiratory Syncytial Virus (RSV)", "test": "Cytopathic effects of RSV upon BEAS2B cells (photomicrography)", "assay_type": "cell-based", "settings": "multiplicity 3, 72 h, lipid 200 ug/ml", "experimental": "(§1) Monolayers of BEAS2B cells were infected with RSV at a multiplicity of 3 for 72 h. Infections were performed on cells in either the absence or the presence of POPG (200 ug/ml). The cell monolayers were photographed at a magnification of 200×. Controls consisted of no viral challenge in either the presence or absence of POPG as indicated.\n(§2) Monolayers of BEAS2B cells were infected with RSV at a multiplicity of 3 for 72 h. Infections were performed on cells in either the absence (b) or the presence (c,f) of POPG (200 ug/ml) and POPC (200 ug/ml) as indicated. Cells were photographed at a magnification of 200×. Controls (a,d,e) consisted of cell layers either not exposed to virus or exposed to POPG, and POPC in the absence of virus as indicated.\nMonolayers of BEAS2B cells were infected with RSV at a multiplicity of 0.5-1, in either the presence or absence of 200 ug/ml POPG, or 200 ug/ml POPC, as indicated.\nMonolayers of BEAS2B cells were either uninfected (CONL) or challenged with RSV at a multiplicity of 0.5/cell (RSV). Where indicated in the FIG. 44, RSV challenged cells were also treated with POPC (200 ug/ml) or POPG (200 ug/ml) liposomes; or POPG nanodiscs (nanoPOPG) at concentrations ranging from 100-300 ug/ml. Selected panels and fields are also shown at 400× magnification in FIG. 45.\nWhere indicated in FIG. 46, RSV challenged cells were also treated with nanodisc forms of dipalmitoyl-phosphatidylcholine (nanoDPPC), palmitoyl-oleoyl-phosphatidylcholine (nanoPOPC), or dioleoyl-phosphatidylcholine (nanoDOPC), dipalmitoyl-phosphatidylglycerol (nanoDPPG), dimyristoyl-phosphatidylglycerol (nanoDMPG), or dioleoyl-phosphatidylglycerol (nanoDOPG). At 72 h after infection, the cultures were examined by photomicrography at a magnification of 200×."}, "[5]": {"tested_on": "Respiratory Syncytial Virus (RSV)", "test": "Cytopathic effects of RSV upon NHBE cells (photomicrography)", "assay_type": "cell-based", "settings": "multiplicity 3, 72 h, lipid 200 ug/ml", "experimental": "as §1, with “NHBE” for “BEAS2B”\nas §2, with “NHBE” for “BEAS2B”\nMonolayers of normal human bronchial epithelial cells were infected with RSV at a multiplicity of 0.5-1, in either the presence or absence of 200 ug/ml POPG, or 200 ug/ml POPC, as indicated."}, "[6]": {"tested_on": "RSV", "test": "RSV plaque progression in Hep2 monolayers, lipid in agar overlay", "assay_type": "cell-based, Respiratory Syncytial Virus (RSV)", "settings": "lipid in agar overlay 5 hours after virus, POPG 200-500 ug/ml, POPC 500 ug/ml, 5 days", "experimental": "Monolayers of Hep2 cells were subjected to RSV infection at levels that produce ca 100 plaques per well in quantitative plaque assays. The virus was incubated with the cells for 5 hours prior to agar overlay. The agar overlays contained either no additions, or POPG (200-500 ug/ml) or POPC (500 ug/ml).\nThe effects of POPG upon plaque formation as shown in Panel a of FIG. 39 were quantified in 3 independent experiments and are presented in this figure. The left panel of FIG. 40 provides the numbers of definite, and minute indefinite plaques formed in the absence and presence of POPG (200-500 ug/ml) as indicated. The right panel of FIG. 40 provides the numbers of definite plaques observed in the absence and presence of either POPG or POPC (200-500 ug/ml) as indicated."}},
  "data": [
    {"smiles": "CCCCCCCC/C=C\\CCCCCCCC(=O)O[C@H](COC(=O)CCCCCCCCCCCCCCC)COP(=O)([O-])OCC[N+](C)(C)C", "note": "[POPC, palmitoyl-oleoyl-phosphatidylcholine, reference compound]", "values": [
      {"measurement": "LPS-induced MKP-1 expression", "setting": "[1]", "value": "neither POPC nor DPPG exerted a significant effect"},
      {"measurement": "LPS-induced phosphorylation of p38, ERK, JNK and IkBα", "setting": "[1]; 15-60 min", "value": "neither POPC nor DPPG exerted a significant effect"},
      {"measurement": "IL-6 production", "setting": "[2]", "value": "not"},
      {"measurement": "IL-6 production", "setting": "[3]", "value": "not"},
      {"measurement": "cytopathic effects of RSV", "setting": "[4]", "value": "not"},
      {"measurement": "cytopathic effects of RSV", "setting": "[5]", "value": "not"},
      {"measurement": "progression of RSV infection (plaques)", "setting": "[6]", "value": "bullseye plaques"}
    ]}
  ]
}
